Read-outs that look alike come from different tables or passages of the source.

Data set [1] relates to 268ala. Description: Enzyme kinetics of prodrugs with 268ala mutant of human CPA1 (coupled assay). Type of data set: biochemical. From the text: (§1) As indicated herein, the in vivo stable prodrug of the present invention should be a better substrate for a mutant enzyme than the corresponding wild type enzyme in order for the stable prodrug to be activated selectively at the tumour. […] The most relevant kinetic constant in the table is the kcat/Km, which provides an estimate of the second order rate constant for the enzyme catalyzed conversion of prodrug to methotrexate. Thus, the larger the kcat/Km, the more efficient the enzyme with a particular substrate. […] Thus, the single mutation at 268 from thr to gly converted very poor substrates in the wild type enzyme to excellent substrates in the mutant enzyme. […] Thus, the compounds are much better substrates for the mutant enzyme than the wild type enzyme which permits very specific tumor targeted activation of the nontoxic, stable prodrug to the active agent.
(§2) Kinetics were determined by a modification of the coupled assay of Kuefner, et al (1989) Biochemistry 28 2288-2297 in which the product MTX is converted by excess carboxypeptidase G to the pteroate of MTX. In this assay the reaction is followed spectrophotometrically at 315 nm; at this wavelength the change in molar absorbtivity for the coupled reaction was determined to be 9.57 mM^-1 cm^-1. Assays were performed at 25° C. in 25 mM tris-HCl, 100 mM NaCl, pH 7.4. Prodrugs were preincubated at 25° C. with buffer and 17 milliunits of Sigma #C-9658 carboxypeptidase G in 1 ml total volume. Assay was initiated with carboxypeptidase A or the appropriate mutant. Initial velocities were obtained, and standard Michaelis-Menten calculations were used to determine kinetic constants (in Biochemistry, Lehninger, A. L. 1970, Worth Publishers, Inc, NY).

The nature of data set [2]: in vivo. As to conditions: mouse, iv.
Data set [3] deals with T1, wild type human carboxypeptidase A1 (Homo sapiens, UniProt P15085).
T1 sequence (P15085 111-419): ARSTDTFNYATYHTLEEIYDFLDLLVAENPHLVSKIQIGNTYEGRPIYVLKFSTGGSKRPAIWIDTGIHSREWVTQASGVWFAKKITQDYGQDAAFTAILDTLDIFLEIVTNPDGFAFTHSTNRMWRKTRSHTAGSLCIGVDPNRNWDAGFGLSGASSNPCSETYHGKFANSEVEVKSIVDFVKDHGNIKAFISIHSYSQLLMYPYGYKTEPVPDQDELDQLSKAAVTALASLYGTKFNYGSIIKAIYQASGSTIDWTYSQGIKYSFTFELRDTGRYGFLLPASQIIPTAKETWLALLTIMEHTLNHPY
The data set is described as follows: Enzyme kinetics of prodrugs with wild type human carboxypeptidase A1 (coupled assay). In kind it is biochemical. The following applies: for kcat (symbol ND): Human CPA1, rate too slow to assay.
Text: as §1, §2

For data set [4] the following is noted: mouse, in vivo, iv.
The test system of data set [5] is 268gly. Description: Enzyme kinetics of prodrugs with 268gly mutant of human CPA1 (coupled assay). As to conditions: for kcat/Km: 268Gly; for Km / kcat: 268gly, 25° C., pH 7.4. Type of data set: biochemical.
Text: as §1, §2

Data set [6] has as its system mutant enzyme. Description: Substrate behaviour with mutant enzyme. In kind it is biochemical, human. The text has this: This type of compound is not useful for ADEPT.
The nature of data set [7]: Stability and biodistribution of prodrugs in vivo (HPLC of plasma and tissues). The arrangement: species or system mice (CD-1 nude; BALB/C where indicated).
Data set [8] is described as follows: IEF of proCPA and mature CPA. In kind it is physicochemical. The protocol:
The final OD600 was 14. […] All subsequent buffers contained 0.1 mM Zn-acetate. […] Total protein=368 mg.

The Km is the substrate concentration at which the rate is half of its maximum. One may read the kcat as the maximal rate divided by the concentration of active sites. The term kcat/Km denotes the second-order rate constant that governs catalysis at low substrate concentration. Turning to `CN(Cc1cnc2nc(N)nc(N)c2n1)c1ccc(C(=O)N[C@@H](CCC(=O)O)C(=O)N[C@@H](Cc2cccc(C3CCC3)c2)C(=O)O)cc1`, in data set [1] (25° C., pH 7.4), the Michaelis constant (Km) stood at 160 µM and the kcat was determined as 0.12 s⁻¹. Besides, the MTD in data set [2] was under 30 mg/kg. In data set [3], the “human CPA catalyzed reaction (in words)” value is “not measureable”, the “kcat/Km for human CPA1 compared with that of the L-phenylalanine prodrug (in words)” value was “much lower” and the “kcat (symbol ND)” value is “ND (not determined; rate to slow assay. kcat ≤ 0.0005/sec.)”. For the same molecule, the “dose showing some toxicity” value in data set [4] is 30 mg/kg. In addition, in data set [5], the specificity constant (kcat/Km) was 1.8e+06 M⁻¹ s⁻¹, the Michaelis-Menten constant (Km) amounted to 1.8 µM and the kcat stood at 3 s⁻¹. For the same molecule, the “activity of 268Gly relative to CPA1 with the L-phenylalanine prodrug of MTX” value in data set [5] (268Gly with prodrug vs human CPA1 with L-phenylalanine prodrug) amounted to 4 times.

What is called NOAEL is the highest tested level that showed no adverse finding. Take `CN(Cc1cnc2nc(N)nc(N)c2n1)c1ccc(C(=O)N[C@@H](CCC(=O)O)C(=O)N[C@@H](Cc2cccc(C(C)(C)C)c2)C(=O)O)cc1` [Prodrug 12, N-(4-(((2,4-diamino-6-pterdinyl)methyl)methylamino)benzoyl)-L-glutam-1-yl-3-tert-butyl-L-phenylalanine]: the “kcat (symbol ND)” value in data set [1] (rate too slow to assay) and in data set [3] was “ND (not determined; rate to slow assay. kcat ≤ 0.0005/sec.)” in each case. For the same molecule, the “substrate for a mutant enzyme (in words)” value in data set [6] is “good substrates for a mutant enzyme”. The MTD in data set [2] is over 40 mg/kg. Further, the NOAEL in data set [2] was at least 40 mg/kg. In addition, the “human CPA catalyzed reaction (in words)” value in data set [3] is reported as “not measureable”. The “kcat/Km for human CPA1 compared with that of the L-phenylalanine prodrug (in words)” value in data set [3] is “much lower”. For the same molecule, the “substrate for wild type CPA (in words)” value in data set [3] is reported as “not for the wild type enzyme”. Besides, in data set [5], the “activity of 268Gly compared with human CPA1 with the L-phenylalanine prodrug (in words)” value is “not different”. In data set [5], the kcat/Km was 380000 M⁻¹ s⁻¹. The Km in data set [5] was determined as 2.1 µM. Besides, the kcat in data set [5] is 0.81 s⁻¹. Moreover, the “concentration of prodrug in cecum” value is reported as 16.3 nmol/g in data set [7] (CECUM, 30 min, 50 mg/kg i.p. or i.v., CD-1 nude mice) and 402.3 nmol/g in data set [7] (CECUM, 120 min, 50 mg/kg i.p. or i.v., CD-1 nude mice). The “concentration of prodrug in feces” value in data set [7] (FECES, 30 min, 50 mg/kg i.p. or i.v., CD-1 nude mice) was determined as 1205 nmol/g; in data set [7] (FECES, 120 min, 50 mg/kg i.p. or i.v., CD-1 nude mice), 1941 nmol/g. The “concentration of prodrug in kidney” value in data set [7] (KIDNEY, 30 min, 50 mg/kg i.p. or i.v., CD-1 nude mice) is 2.2 nmol/g; in data set [7] (KIDNEY, 120 min, 50 mg/kg i.p. or i.v., CD-1 nude mice), 0.2 nmol/g. Also, in data set [7] (LARGE INTESTINE, 120 min, 50 mg/kg i.p. or i.v., CD-1 nude mice), the “concentration of prodrug in large intestine” value worked out at 14.7 nmol/g. Also, the “concentration of prodrug in liver” value in data set [7] (LIVER, 30 min, 50 mg/kg i.p. or i.v., CD-1 nude mice) is 58.6 nmol/g; in data set [7] (LIVER, 120 min, 50 mg/kg i.p. or i.v., CD-1 nude mice) it was 39.5 nmol/g. For the same molecule, the “concentration of prodrug in small intestine” value is 550.8 nmol/g in data set [7] (SMALL INTESTINE, 30 min, 50 mg/kg i.p. or i.v., CD-1 nude mice) and 44.9 nmol/g in data set [7] (SMALL INTESTINE, 120 min, 50 mg/kg i.p. or i.v., CD-1 nude mice). The “concentration of prodrug in tumor” value in data set [7] (TUMOR, 30 min, 50 mg/kg i.p. or i.v., CD-1 nude mice) came to 1.6 nmol/g. For the same molecule, the “stability in vivo (in words)” value in data set [7] (mice, 50 mg/kg) is given as “stable in vivo”. Also, the remaining at 0.5 h in data set [7] (mouse, cecum, 50 mg/kg, CECUM, 30 min, 50 mg/kg i.p. or i.v., CD-1 nude mice, read-out: stability: percentage of material observed as intact prodrug, cecum) was 100%; in data set [7] (mouse, feces, 50 mg/kg, FECES, 30 min, 50 mg/kg i.p. or i.v., CD-1 nude mice, read-out: stability: percentage of material observed as intact prodrug, feces (converted)), 93%; in data set [7] (mouse, kidney, 50 mg/kg, KIDNEY, 30 min, 50 mg/kg i.p. or i.v., CD-1 nude mice, read-out: stability: percentage of material observed as intact prodrug, kidney), 53.4%; in data set [7] (mouse, liver, 50 mg/kg, LIVER, 30 min, 50 mg/kg i.p. or i.v., CD-1 nude mice, read-out: stability: percentage of material observed as intact prodrug, liver (converted)) it was 91.3%; in data set [7] (mouse, plasma, 50 mg/kg, PLASMA, 30 min, 50 mg/kg i.p. or i.v., CD-1 nude mice, read-out: stability: percentage of material observed as intact prodrug, plasma) it was 100%; in data set [7] (mouse, small intestine, 50 mg/kg, SMALL INTESTINE, 30 min, 50 mg/kg i.p. or i.v., CD-1 nude mice, read-out: stability: percentage of material observed as intact prodrug, small intestine), 91%. Further, the remaining at 0.5 h in data set [7] (mouse, tumor, 50 mg/kg, TUMOR, 30 min, 50 mg/kg i.p. or i.v., CD-1 nude mice, read-out: stability: percentage of material observed as intact prodrug, tumor) is 92.8%. Besides, the remaining at 2 h was 80.7% in data set [7] (mouse, cecum, 50 mg/kg, CECUM, 120 min, 50 mg/kg i.p. or i.v., CD-1 nude mice, read-out: stability: percentage of material observed as intact prodrug, cecum); 82% in data set [7] (mouse, feces, 50 mg/kg, FECES, 120 min, 50 mg/kg i.p. or i.v., CD-1 nude mice, read-out: stability: percentage of material observed as intact prodrug, feces); 21.6% in data set [7] (mouse, kidney, 50 mg/kg, KIDNEY, 120 min, 50 mg/kg i.p. or i.v., CD-1 nude mice, read-out: stability: percentage of material observed as intact prodrug, kidney); 66.9% in data set [7] (mouse, large intestine, 50 mg/kg, LARGE INTESTINE, 120 min, 50 mg/kg i.p. or i.v., CD-1 nude mice, read-out: stability: percentage of material observed as intact prodrug, large intestine); 89.2% in data set [7] (mouse, liver, 50 mg/kg, LIVER, 120 min, 50 mg/kg i.p. or i.v., CD-1 nude mice, read-out: stability: percentage of material observed as intact prodrug, liver); 100% in data set [7] (mouse, plasma, 50 mg/kg, PLASMA, 120 min, 50 mg/kg i.p. or i.v., CD-1 nude mice, read-out: stability: percentage of material observed as intact prodrug, plasma). Also, in data set [7] (mouse, small intestine, 50 mg/kg, SMALL INTESTINE, 120 min, 50 mg/kg i.p. or i.v., CD-1 nude mice, read-out: stability: percentage of material observed as intact prodrug, small intestine), the remaining at 2 h was found to be 67%. The concentration at 0.5 h in data set [7] (mouse, plasma, 50 mg/kg, PLASMA, 30 min, 50 mg/kg i.p. or i.v., CD-1 nude mice, read-out: concentration of prodrug in plasma) is 2600 nM. Moreover, the concentration at 2 h in data set [7] (mouse, plasma, 50 mg/kg, PLASMA, 120 min, 50 mg/kg i.p. or i.v., CD-1 nude mice, read-out: concentration of prodrug in plasma) was 700 nM.

B1: proCPA: procarboxypeptidase A, cleaved to mature CPA with trypsin (protein, UniProt P15085 17-419, looked up)
pro-form: KEDFVGHQVLRISVADEAQVQKVKELEDLEHLQLDFWRGPAHPGSPIDVRVPFPSIQAVKIFLESHGISYETMIEDVQSLLDEEQEQMFAFRSRARSTDTFNYATYHTLEEIYDFLDLLVAENPHLVSKIQIGNTYEGRPIYVLKFSTGGSKRPAIWIDTGIHSREWVTQASGVWFAKKITQDYGQDAAFTAILDTLDIFLEIVTNPDGFAFTHSTNRMWRKTRSHTAGSLCIGVDPNRNWDAGFGLSGASSNPCSETYHGKFANSEVEVKSIVDFVKDHGNIKAFISIHSYSQLLMYPYGYKTEPVPDQDELDQLSKAAVTALASLYGTKFNYGSIIKAIYQASGSTIDWTYSQGIKYSFTFELRDTGRYGFLLPASQIIPTAKETWLALLTIMEHTLNHPY
modifications: pro-form
notes: procarboxypeptidase A, cleaved to mature CPA with trypsin
Molecule B1 returned a pI in data set [8] of 4.75.

These data come from patent US6319702A, “Nucleic acids encoding mutant human carboxypeptidase A enzymes” (Glaxo Wellcome, Inc., priority 1993, dated 2001).
